These results are taken from ChEMBL document CHEMBL1135619, “Cyclosporins: structure-activity relationships for the inhibition of the human MDR1 P-glycoprotein ABC transporter” (J Med Chem, 2002).

As a reminder, the IC50 is the concentration at which inhibition is half-maximal. A lower IC50 goes with higher potency.

Each structure is given as a SMILES string. Where a SMILES comes first, the peptide text is derived from it. [ ]: non-standard residue; d: D form. NMeBmt(8-OH) = CN[C@H](C(=O)O)[C@H](O)[C@H](C)C/C=C/CO; MeBmt = C/C=C/C[C@@H](C)[C@@H](O)[C@H](NC)C(=O)O; Val(2S-OH) = CC(C)[C@](N)(O)C(=O)O; NMeL = CN[C@@H](CC(C)C)C(=O)O; NMeV = CN[C@H](C(=O)O)C(C)C; Sar = CNCC(=O)O

ATP-dependent translocase ABCB1, sequence (P08183 whole entry): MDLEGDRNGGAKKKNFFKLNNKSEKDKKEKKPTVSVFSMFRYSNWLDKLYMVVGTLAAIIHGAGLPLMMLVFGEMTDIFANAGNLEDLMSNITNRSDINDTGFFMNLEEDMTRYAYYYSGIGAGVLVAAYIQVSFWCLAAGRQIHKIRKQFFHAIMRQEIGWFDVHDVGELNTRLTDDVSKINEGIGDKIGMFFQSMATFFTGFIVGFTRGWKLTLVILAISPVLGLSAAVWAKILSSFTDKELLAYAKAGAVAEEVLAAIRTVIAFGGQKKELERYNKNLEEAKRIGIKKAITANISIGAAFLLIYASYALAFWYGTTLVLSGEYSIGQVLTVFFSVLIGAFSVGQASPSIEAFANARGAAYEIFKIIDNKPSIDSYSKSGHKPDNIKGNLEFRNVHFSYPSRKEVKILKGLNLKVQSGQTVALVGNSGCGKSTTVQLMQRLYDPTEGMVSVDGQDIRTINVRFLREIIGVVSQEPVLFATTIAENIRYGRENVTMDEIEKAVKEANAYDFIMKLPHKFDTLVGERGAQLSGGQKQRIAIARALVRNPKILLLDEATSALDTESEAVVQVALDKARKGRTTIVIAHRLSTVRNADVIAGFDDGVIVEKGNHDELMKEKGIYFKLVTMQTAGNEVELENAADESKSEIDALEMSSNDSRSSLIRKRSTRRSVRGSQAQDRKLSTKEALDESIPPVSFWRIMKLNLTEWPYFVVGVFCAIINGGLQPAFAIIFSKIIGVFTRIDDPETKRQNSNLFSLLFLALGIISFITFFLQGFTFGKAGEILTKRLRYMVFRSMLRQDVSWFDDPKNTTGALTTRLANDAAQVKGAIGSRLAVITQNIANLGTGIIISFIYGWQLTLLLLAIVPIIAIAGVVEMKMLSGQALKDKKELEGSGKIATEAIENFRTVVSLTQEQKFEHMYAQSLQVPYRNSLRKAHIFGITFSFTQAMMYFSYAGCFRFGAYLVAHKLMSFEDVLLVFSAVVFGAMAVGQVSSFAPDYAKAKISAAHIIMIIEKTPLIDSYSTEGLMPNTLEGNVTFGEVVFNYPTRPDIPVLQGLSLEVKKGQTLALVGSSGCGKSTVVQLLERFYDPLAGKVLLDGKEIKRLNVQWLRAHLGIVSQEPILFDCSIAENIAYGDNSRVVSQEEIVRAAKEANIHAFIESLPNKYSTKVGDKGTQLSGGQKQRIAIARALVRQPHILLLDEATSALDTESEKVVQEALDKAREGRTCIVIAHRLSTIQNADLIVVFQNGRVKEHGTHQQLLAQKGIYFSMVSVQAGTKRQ

The first series deals with MDR1 P-glycoprotein (ABCB1) (Homo sapiens, UniProt P08183). The series can be described thus: (§1) Inhibitory activity against Human MDR1 P-Glycoprotein ABC Transporter using leukemia CEM cells. Conditions: human, leukemia CEM cells.
MDR1 P-glycoprotein (ABCB1), sequence (P08183 whole entry): as above
In turn, `CC/C=C/C[C@@H](C)[C@@H](O)[C@H]1C(=O)N[C@@H](CC)C(=O)N(C)[C@@H](Cc2ccccc2)C(=O)N(C)[C@H](CC(C)C)C(=O)N[C@H](C(C)C)C(=O)N(C)[C@H](CC(C)C)C(=O)N[C@@H](C)C(=O)N[C@H](C)C(=O)N(C)[C@@H](CC(C)C)C(=O)N(C)[C@@H](CC(C)C)C(=O)N(C)[C@@H](C(C)C)C(=O)N1C` registered an IC50 of 1.5 µM.
With `C/C=C/C[C@@H](C)[C@@H](O)C1NC(=O)[C@H](C(C)C)N(C)C(=O)[C@H](CC(C)C)N(C)C(=O)[C@H](CC(C)C)N(C)C(=O)[C@@H](C)NC(=O)[C@H](C)NC(=O)[C@@H](CC(C)C)N(C)C(=O)[C@@H](C(C)C)NC(=O)[C@@H](CC(C)C)N(C)C(=O)CN(C)C(=O)[C@H]([C@@H](C)O)NC1=O` (some centres undefined), the IC50 was 17 µM.
The molecule `C/C=C/C[C@@H](C)[C@@H](O)[C@H]1C(=O)N[C@@H]([C@@H](C)O)C(=O)N(C)CC(=O)N(C)[C@@H](CC(C)C)C(=O)N[C@@H]([C@@H](C)CC)C(=O)N(C)[C@@H](CC(C)C)C(=O)N[C@@H](C)C(=O)N[C@](O)(C(C)C)C(=O)N(C)[C@@H](CC(C)C)C(=O)N[C@@H](CC(C)C)C(=O)N(C)[C@@H](C(C)C)C(=O)N1C` (cyclo(A[Val(2S-OH)][NMeL]L[NMeV][MeBmt]T[Sar][NMeL]I[NMeL])) returned an IC50 of 1.6 µM. Compared with the last molecule, the IC50 is about 11-fold lower.
Still for that read-out and setting: next, `CC(C)C[C@@H]1NC(=O)[C@H](CC(C)C)N(C)C(=O)[C@@](O)(C(C)C)NC(=O)[C@H](C)NC(=O)[C@H](CC(C)C)N(C)C(=O)[C@H](CC(C)C)NC(=O)[C@H](CC(C)C)N(C)C(=O)CN(C)C(=O)[C@H]([C@@H](C)O)NC(=O)[C@H]([C@H](O)[C@H](C)C/C=C/CO)N(C)C(=O)[C@H](C(C)C)N(C)C1=O` (cyclo(A[Val(2S-OH)][NMeL]L[NMeV][NMeBmt(8-OH)]T[Sar][NMeL]L[NMeL])): 15.8 µM; `CC[C@@H]1NC(=O)[C@H](C2CCCCC2C)N(C)C(=O)[C@H](C(C)C)N(C)C(=O)[C@H](CC(C)C)N(C)C(=O)[C@H](CC(C)C)N(C)C(=O)[C@@H](C)NC(=O)[C@H](C)NC(=O)[C@H](CC(C)C)N(C)C(=O)[C@H](C(C)C)NC(=O)[C@H](CC(C)C)N(C)C(=O)CN(C)C1=O` (some centres undefined): 13.1 µM.

Another series has as its target ATP-dependent translocase ABCB1 (Homo sapiens, UniProt P08183). Described as §1.
Conditions: not given
Consider `C/C=C/C[C@@H](C)[C@@H](O)[C@H]1C(=O)N[C@@H]([C@@H](C)O)C(=O)N(C)CC(=O)N(C)[C@@H](CC(C)C)C(=O)N[C@@H](C(C)C)C(=O)N(C)[C@@H](CC(C)C)C(=O)N[C@@H](C)C(=O)N[C@](O)(C(C)C)C(=O)N(C)[C@@H](CC(C)C)C(=O)N[C@@H](CC(C)C)C(=O)N(C)[C@@H](C(C)C)C(=O)N1C` (cyclo(A[Val(2S-OH)][NMeL]L[NMeV][MeBmt]T[Sar][NMeL]V[NMeL])), for which half-maximal inhibition (IC50) required 2.1 µM. That is a single-digit micromolar value.
Regarding `C/C=C/C[C@@H](C)[C@@H](O)[C@H]1C(=O)N[C@@H](CC)C(=O)NCC(=O)N(C)[C@@H](CC(C)C)C(=O)N[C@@H](C(C)C)C(=O)N(C)[C@@H](CC(C)C)C(=O)N[C@@H](C)C(=O)N[C@H](CO)C(=O)N(C)[C@@H](CC(C)C)C(=O)N(C)[C@@H](CC(C)C)C(=O)N(C)[C@@H](C(C)C)C(=O)N1C`, the 50% inhibitory concentration (IC50) is > 30 µM.
As to `C/C=C/C[C@@H](C)[C@@H](O)[C@H]1C(=O)N[C@@H]([C@@H](C)O)C(=O)N(C)CC(=O)N[C@@H](CC(C)C)C(=O)N[C@@H](CC(C)C)C(=O)N(C)[C@@H](CC(C)C)C(=O)N[C@@H](C)C(=O)N[C@](O)(C(C)C)C(=O)N(C)[C@@H](CC(C)C)C(=O)N[C@@H](CC(C)C)C(=O)N(C)[C@@H](C(C)C)C(=O)N1C` (cyclo(A[Val(2S-OH)][NMeL]L[NMeV][MeBmt]T[Sar]LL[NMeL])), half-maximal inhibition (IC50) was put at 4.3 µM.
Regarding `C/C=C/C[C@@H](C)[C@@H](O)[C@H]1C(=O)N[C@@H](CC)C(=O)N2CCC[C@H]2C(=O)N(C)[C@@H](CC(C)C)C(=O)N[C@@H](C(C)C)C(=O)N(C)[C@@H](CC(C)C)C(=O)N[C@@H](C)C(=O)N[C@H](C)C(=O)N(C)[C@@H](CC(C)C)C(=O)N(C)[C@@H](CC(C)C)C(=O)N(C)[C@@H](C(C)C)C(=O)N1C`, the 50% inhibitory concentration (IC50) turned out to be 5.2 µM.
`CC(C)C[C@H]1C(=O)N[C@@H](C(C)C)C(=O)N(C)[C@@H](CC(C)C)C(=O)N[C@@H](C)C(=O)N[C@H](C)C(=O)N(C)[C@@H](CC(C)C)C(=O)N(C)[C@@H](CC(C)C)C(=O)N(C)[C@@H](C(C)C)C(=O)N(C)[C@@H](CC(C)C)C(=O)N[C@@H](C(C)C)C(=O)N(C)CC(=O)N1C` (cyclo(A[dA][NMeL][NMeL][NMeV][NMeL]V[Sar][NMeL]V[NMeL])) showed an IC50 of 7 µM.
The molecule `C/C=C/C[C@@H](C)[C@@H](O)[C@H]1C(=O)N[C@@H]([C@@H](C)O)C(=O)NCC(=O)N(C)[C@@H](CC(C)C)C(=O)N[C@@H](CC(C)C)C(=O)N(C)[C@@H](CC(C)C)C(=O)N[C@@H](C)C(=O)N[C@](O)(C(C)C)C(=O)N(C)[C@@H](CC(C)C)C(=O)N[C@@H](CC(C)C)C(=O)N(C)[C@@H](C(C)C)C(=O)N1C` (cyclo(A[Val(2S-OH)][NMeL]L[NMeV][MeBmt]TG[NMeL]L[NMeL])) displayed an IC50 of 4 µM.
Regarding `C/C=C/C[C@@H](C)[C@@H](O)[C@H]1C(=O)N[C@@H]([C@@H](C)O)C(=O)N(C)CC(=O)N[C@@H](C(C)C)C(=O)N[C@@H](C(C)C)C(=O)N(C)[C@@H](CC(C)C)C(=O)N[C@@H](C)C(=O)N[C@H](C)C(=O)N(C)[C@@H](CC(C)C)C(=O)N(C)[C@@H](CC(C)C)C(=O)N(C)[C@@H](C(C)C)C(=O)N1C`, the IC50 was > 100 µM.
Regarding `CCCCCC[C@H]1C(=O)N[C@@H](CC)C(=O)N(C)CC(=O)N(C)[C@@H](CC(C)C)C(=O)N[C@@H](C(C)C)C(=O)N(C)[C@@H](CC(C)C)C(=O)N[C@@H](C)C(=O)N[C@H](C)C(=O)N(C)[C@@H](CC(C)C)C(=O)N(C)[C@@H](CC(C)C)C(=O)N(C)[C@@H](C(C)C)C(=O)N1C`, the IC50 stood at 4 µM.
In turn, `C/C=C/C[C@@H](C)[C@@H](O)[C@H]1C(=O)N[C@@H]([C@@H](C)O)C(=O)N(C)CC(=O)N(C)[C@@H](CC(C)C)C(=O)N[C@@H](CC(C)C)C(=O)N(C)[C@@H](CC(C)C)C(=O)N[C@@H](C)C(=O)N[C@H](C)C(=O)N(C)[C@@H](CC(C)C)C(=O)N[C@@H](C)C(=O)N(C)[C@@H](C(C)C)C(=O)N1C` (cyclo(A[NMeV][MeBmt]T[Sar][NMeL]L[NMeL]A[dA][NMeL])) had an IC50 of 56 µM.
Same read-out and setting: the result for `C/C=C/C[C@@H](C)C[C@H]1C(=O)N[C@@H](CC)C(=O)N(C)CC(=O)N(C)[C@@H](CC(C)C)C(=O)N[C@@H](C(C)C)C(=O)N(C)[C@@H](CC(C)C)C(=O)N[C@@H](C)C(=O)N[C@H](C)C(=O)N(C)[C@@H](CC(C)C)C(=O)N(C)[C@@H](CC(C)C)C(=O)N(C)[C@@H](C(C)C)C(=O)N1C` reads 2.2 µM; that for `CC[C@@H]1NC(=O)[C@H](CC2CCCCC2)N(C)C(=O)[C@H](C(C)C)N(C)C(=O)[C@H](CC(C)C)N(C)C(=O)[C@H](CC(C)C)N(C)C(=O)[C@@H](C)NC(=O)[C@H](C)NC(=O)[C@H](CC(C)C)N(C)C(=O)[C@H](C(C)C)NC(=O)[C@H](CC(C)C)N(C)C(=O)CN(C)C1=O`, 8.1 µM.
Same read-out and setting: the result for `C/C=C/C[C@@H](C)[C@@H](O)[C@H]1C(=O)N[C@@H](CC)C(=O)N2CCC[C@@H]2C(=O)N(C)[C@@H](CC(C)C)C(=O)N[C@@H](C(C)C)C(=O)N(C)[C@@H](CC(C)C)C(=O)N[C@@H](C)C(=O)N[C@H](C)C(=O)N(C)[C@@H](CC(C)C)C(=O)N(C)[C@@H](CC(C)C)C(=O)N(C)[C@@H](C(C)C)C(=O)N1C` reads 3.5 µM.
`C/C=C/C[C@@H](C)[C@@H](O)[C@H]1C(=O)N[C@@H]([C@@H](C)O)C(=O)N(C)CC(=O)N(C)[C@@H](CC(C)C)C(=O)N[C@@H](CC(C)C)C(=O)N(C)[C@@H](CC(C)C)C(=O)N[C@@H](C)C(=O)N[C@H](C)C(=O)N(C)[C@@H](CC(C)C)C(=O)N[C@@H](CC(C)C)C(=O)N(C)[C@@H](C(C)C)C(=O)N1C` (cyclo(A[dA][NMeL]L[NMeV][MeBmt]T[Sar][NMeL]L[NMeL])) returned an IC50 of 6 µM.
Molecule `C/C=C/C[C@@H](C)[C@@H](O)[C@H]1C(=O)N[C@@H]([C@@H](C)O)C(=O)N(C)CC(=O)N(C)[C@@H](CC(C)C)C(=O)N[C@@H](CC(C)C)C(=O)N(C)[C@@H](CC(C)C)C(=O)N[C@@H](C)C(=O)N[C@](O)(C(C)C)C(=O)N(C)[C@@H](CC(C)C)C(=O)N[C@@H](CC(C)C)C(=O)N(C)[C@@H](C(C)C)C(=O)N1C` (cyclo(A[Val(2S-OH)][NMeL]L[NMeV][MeBmt]T[Sar][NMeL]L[NMeL])) yielded an IC50 of 1.6 µM.
